For assay [1], the system named is Staphylococcus aureus. The assay can be described thus: Antibacterial activity against inducible macrolide-lincosamide-streptogramin B-resistant Staphylococcus aureus B0538 by agar microdilution method. The format is functional.
For assay [2], the system named is Staphylococcus aureus. The assay can be described thus: Antibacterial activity against constitutive macrolide-lincosamide-streptogramin B-resistant Staphylococcus aureus B0330 by agar microdilution method. It counts as functional.
In assay [3] the test system is Staphylococcus aureus. The assay can be described thus: Antibacterial activity against efflux-resistant Staphylococcus aureus B0331 by agar microdilution method. The format is functional.
Assay [4] deals with Streptococcus pneumoniae. The assay can be described thus: Antibacterial activity against constitutive macrolide-lincosamide-streptogramin B-resistant Streptococcus pneumoniae B0627 by agar microdilution method. It counts as functional.
For assay [5], the system named is Streptococcus pneumoniae. The assay can be described thus: Antibacterial activity against efflux-resistant Streptococcus pneumoniae B0326 by agar microdilution method. It counts as functional.
The test system of assay [6] is Streptococcus pyogenes. The assay can be described thus: Antibacterial activity against inducible macrolide-lincosamide-streptogramin B-resistant Streptococcus pyogenes B0543 by agar microdilution method. The format is functional.
In assay [7] the test system is Streptococcus pyogenes. The assay can be described thus: Antibacterial activity against constitutive macrolide-lincosamide-streptogramin B-resistant Streptococcus pyogenes B0544 by agar microdilution method. The format is functional.
Assay [8] has as its system Streptococcus pyogenes. The assay can be described thus: Antibacterial activity against efflux-resistant Streptococcus pyogenes B0545 by agar microdilution method. It counts as functional.
Assay [9] has as its system Moraxella catarrhalis. The assay can be described thus: Antibacterial activity against Moraxella catarrhalis B0324 by agar microdilution method. It counts as functional.
In assay [10] the test system is Haemophilus influenzae. The assay can be described thus: Antibacterial activity against Haemophilus influenzae B0529 by agar microdilution method. It counts as functional.
Assay [11] deals with Staphylococcus aureus. The assay can be described thus: Antibacterial activity against erythromycin A-susceptible Staphylococcus aureus B0329 by agar microdilution method.
For assay [12], the system named is Streptococcus pneumoniae. The assay can be described thus: Antibacterial activity against erythromycin-susceptible Streptococcus pneumoniae B0541 by agar microdilution method.
Assay [13] relates to Streptococcus pyogenes. The assay can be described thus: Antibacterial activity against erythromycin A-susceptible Streptococcus pyogenes B0542 by agar microdilution method.

≈ marks a conversion by molar mass, not a printed value.

For `CC[C@H]1OC(=O)[C@H](C)C(=O)[C@H](C)[C@@H](O[C@@H]2O[C@H](C)C[C@H](N(C)C)[C@H]2O)[C@](C)(OC[C@@H](O)CNCCNc2ccc3ncccc3c2)C[C@@H](C)NC(=O)[C@H](C)[C@@H](O)[C@]1(C)O`, the MIC in assay [1] is 0.25 µg/mL (≈ 0.3 µM); in assay [2], above 64 µg/mL; in assay [3], 0.25 µg/mL (≈ 0.3 µM); in assay [4], at most 0.125 µg/mL; in [5], at most 0.125 µg/mL; in assay [6], at most 0.125 µg/mL. Besides, the MIC in assay [7] is 1 µg/mL (≈ 1.2 µM); in assay [8], 0.5 µg/mL (≈ 0.601 µM); in assay [9], at most 0.125 µg/mL; in assay [10], 0.25 µg/mL (≈ 0.3 µM); in assay [11] it was at most 0.125 µg/mL; in assay [12], at most 0.125 µg/mL. Further, the MIC in [13] was at most 0.125 µg/mL.

Regarding `CC[C@H]1OC(=O)[C@H](C)C(=O)[C@H](C)[C@@H](O[C@@H]2O[C@H](C)C[C@H](N(C)C)[C@H]2O)[C@](C)(OC[C@H](O)CNCCNc2ccc3ncccc3c2)C[C@@H](C)NC(=O)[C@H](C)[C@@H](O)[C@]1(C)O`, the MIC was 0.25 µg/mL (≈ 0.3 µM) in assay [1]; above 64 µg/mL in assay [2]; 0.5 µg/mL (≈ 0.601 µM) in assay [3]; 0.5 µg/mL (≈ 0.601 µM) in assay [4]; 0.25 µg/mL (≈ 0.3 µM) in assay [5]; 0.5 µg/mL (≈ 0.601 µM) in assay [6]. Further, the MIC in assay [7] is 4 µg/mL (≈ 4.81 µM); in assay [8], 0.5 µg/mL (≈ 0.601 µM); in assay [9], 0.5 µg/mL (≈ 0.601 µM); in [10] it was 0.5 µg/mL (≈ 0.601 µM); in [11], at most 0.125 µg/mL; in assay [12], at most 0.125 µg/mL. Further, the MIC in assay [13] is at most 0.125 µg/mL.

Turning to `CC[C@H]1OC(=O)[C@H](C)C(=O)[C@H](C)[C@@H](O[C@@H]2O[C@H](C)C[C@H](N(C)C)[C@H]2O)[C@](C)(OCC(O)CN2CCN(c3cnc4ccccc4c3)CC2)C[C@@H](C)NC(=O)[C@H](C)[C@@H](O)[C@]1(C)O` (stereo partly specified), the MIC in [1] was 2 µg/mL (≈ 2.33 µM); in assay [2], above 64 µg/mL; in assay [3], 0.5 µg/mL (≈ 0.583 µM); in assay [4] it was 4 µg/mL (≈ 4.66 µM); in assay [5] it was 1 µg/mL (≈ 1.17 µM); in assay [6] it was 8 µg/mL (≈ 9.32 µM). Also, the MIC in assay [7] is 32 µg/mL (≈ 37.3 µM); in assay [8], 4 µg/mL (≈ 4.66 µM); in assay [9], 4 µg/mL (≈ 4.66 µM); in [10], 8 µg/mL (≈ 9.32 µM); in assay [11], 1 µg/mL (≈ 1.17 µM); in assay [12] it was at most 0.125 µg/mL. Moreover, the MIC in assay [13] was at most 0.125 µg/mL.

As for `CC[C@H]1OC(=O)[C@H](C)C(=O)[C@H](C)[C@@H](O[C@@H]2O[C@H](C)C[C@H](N(C)C)[C@H]2O)[C@](C)(OCC(O)CN2CCN(c3ccc4ncccc4c3)CC2)C[C@@H](C)NC(=O)[C@H](C)[C@@H](O)[C@]1(C)O` (stereo partly specified), the MIC is 0.25 µg/mL (≈ 0.291 µM) in [1]; above 64 µg/mL in assay [2]; 2 µg/mL (≈ 2.33 µM) in assay [3]; 1 µg/mL (≈ 1.17 µM) in [4]; 0.5 µg/mL (≈ 0.583 µM) in assay [5]; 0.25 µg/mL (≈ 0.291 µM) in assay [6]. In addition, the MIC in assay [7] was 4 µg/mL (≈ 4.66 µM); in assay [8], 2 µg/mL (≈ 2.33 µM); in assay [9] it was 1 µg/mL (≈ 1.17 µM); in [10], 2 µg/mL (≈ 2.33 µM); in assay [11], 0.25 µg/mL (≈ 0.291 µM); in assay [12] it was at most 0.125 µg/mL. Moreover, the MIC in assay [13] is at most 0.125 µg/mL.

As to `CC[C@H]1OC(=O)[C@H](C)C(=O)[C@H](C)[C@@H](O[C@@H]2O[C@H](C)C[C@H](N(C)C)[C@H]2O)[C@](C)(OCC(O)CNCCc2ccccn2)C[C@@H](C)NC(=O)[C@H](C)[C@@H](O)[C@]1(C)O` (mixture of isomers), the MIC is 8 µg/mL in assay [1]; above 64 µg/mL in [2]; 8 µg/mL in assay [3]; 8 µg/mL in assay [4]; 16 µg/mL in [5]; 4 µg/mL in assay [6]. For the same compound, the MIC in assay [7] worked out at 32 µg/mL; in assay [8], 4 µg/mL; in assay [9], 4 µg/mL; in [10], 32 µg/mL; in assay [11], 8 µg/mL; in [12], 1 µg/mL. Besides, the MIC in assay [13] amounted to 0.25 µg/mL.

On to `CC[C@H]1OC(=O)[C@H](C)C(=O)[C@H](C)[C@@H](O[C@@H]2O[C@H](C)C[C@H](N(C)C)[C@H]2O)[C@](C)(OCC(O)CNCCc2ccccc2)C[C@@H](C)NC(=O)[C@H](C)[C@@H](O)[C@]1(C)O` (mixture of isomers), for which the MIC in assay [1] was 16 µg/mL; in assay [2], above 64 µg/mL; in assay [3] it was 8 µg/mL; in [4] it was 8 µg/mL; in assay [5] it was 16 µg/mL; in assay [6], 1 µg/mL. For the same compound, the MIC was 16 µg/mL in assay [7]; 1 µg/mL in [8]; 0.5 µg/mL in assay [9]; 16 µg/mL in [10]; 4 µg/mL in [11]; 0.25 µg/mL in [12]. Moreover, the MIC in assay [13] was 0.5 µg/mL.

In the case of `CC[C@H]1OC(=O)[C@H](C)C(=O)[C@H](C)[C@@H](O[C@@H]2O[C@H](C)C[C@H](N(C)C)[C@H]2O)[C@](C)(OCC(O)CNCCCCc2ccccc2)C[C@@H](C)NC(=O)[C@H](C)[C@@H](O)[C@]1(C)O` (mixture of isomers), the MIC is 2 µg/mL in [1]; above 64 µg/mL in assay [2]; 2 µg/mL in [3]; 1 µg/mL in [4]; 4 µg/mL in assay [5]; 0.5 µg/mL in [6]. The MIC in [7] is 8 µg/mL; in assay [8], 0.5 µg/mL; in [9] it was at most 0.125 µg/mL; in [10] it was 8 µg/mL; in [11], 2 µg/mL; in [12] it was at most 0.125 µg/mL. For the same compound, the MIC in assay [13] stood at 0.25 µg/mL.

As for `CC[C@H]1OC(=O)[C@H](C)C(=O)[C@H](C)[C@@H](O[C@@H]2O[C@H](C)C[C@H](N(C)C)[C@H]2O)[C@](C)(OCC(O)CN[C@H](C)Cc2ccc(OC)cc2)C[C@@H](C)NC(=O)[C@H](C)[C@@H](O)[C@]1(C)O` (mixture of isomers), the MIC in assay [1] was 2 µg/mL; in assay [2], above 64 µg/mL; in assay [3], 4 µg/mL; in assay [4], 2 µg/mL; in assay [5], 16 µg/mL; in assay [6], 1 µg/mL. Also, the MIC in assay [7] is 8 µg/mL; in assay [8], 1 µg/mL; in [9], 0.5 µg/mL; in assay [10] it was 16 µg/mL; in assay [11], 1 µg/mL; in [12], at most 0.125 µg/mL. In assay [13], this compound displayed an MIC of 0.5 µg/mL.

On to `CC[C@H]1OC(=O)[C@H](C)C(=O)[C@H](C)[C@@H](O[C@@H]2O[C@H](C)C[C@H](N(C)C)[C@H]2O)[C@](C)(OCC(O)CNCCc2ccc([N+](=O)[O-])cc2)C[C@@H](C)NC(=O)[C@H](C)[C@@H](O)[C@]1(C)O` (mixture of isomers), for which the MIC in [1] is 1 µg/mL; in [2], above 64 µg/mL; in [3], 1 µg/mL; in assay [4], at most 0.125 µg/mL; in assay [5] it was 0.5 µg/mL; in assay [6], 0.25 µg/mL. Further, the MIC in assay [7] was 1 µg/mL; in [8], 0.25 µg/mL; in assay [9], at most 0.125 µg/mL; in [10] it was 1 µg/mL; in [11] it was at most 0.125 µg/mL; in [12], at most 0.125 µg/mL. In addition, the MIC in assay [13] was at most 0.125 µg/mL.

With `CC[C@H]1OC(=O)[C@H](C)C(=O)[C@H](C)[C@@H](O[C@@H]2O[C@H](C)C[C@H](N(C)C)[C@H]2O)[C@](C)(OCC(O)CN[C@H](C)Cc2ccc([N+](=O)[O-])cc2)C[C@@H](C)NC(=O)[C@H](C)[C@@H](O)[C@]1(C)O` (mixture of isomers), the MIC was 2 µg/mL in assay [1]; above 64 µg/mL in assay [2]; 2 µg/mL in assay [3]; 2 µg/mL in assay [4]; 1 µg/mL in assay [5]; 0.5 µg/mL in assay [6]. Moreover, the MIC was 4 µg/mL in assay [7]; 0.5 µg/mL in assay [8]; 0.25 µg/mL in assay [9]; 1 µg/mL in assay [10]; 0.5 µg/mL in [11]; at most 0.125 µg/mL in [12]. For the same compound, the MIC in assay [13] was at most 0.125 µg/mL.

Consider `CC[C@H]1OC(=O)[C@H](C)C(=O)[C@H](C)[C@@H](O[C@@H]2O[C@H](C)C[C@H](N(C)C)[C@H]2O)[C@](C)(OCC(O)CN2CCN(c3cccc(C(F)(F)F)c3)CC2)C[C@@H](C)NC(=O)[C@H](C)[C@@H](O)[C@]1(C)O` (mixture of isomers), for which the MIC was 4 µg/mL in [1]; above 64 µg/mL in assay [2]; 4 µg/mL in assay [3]; 16 µg/mL in [4]; 4 µg/mL in assay [5]; 4 µg/mL in [6]. The MIC came to 16 µg/mL in assay [7]; 2 µg/mL in [8]; 1 µg/mL in assay [9]; 16 µg/mL in [10]; 4 µg/mL in assay [11]; 0.5 µg/mL in assay [12]. Moreover, the MIC in assay [13] was at most 0.125 µg/mL.

As for `CC[C@H]1OC(=O)[C@H](C)C(=O)[C@H](C)[C@@H](O[C@@H]2O[C@H](C)C[C@H](N(C)C)[C@H]2O)[C@](C)(OCC(O)CN2CCN(c3ccc(C(C)=O)cc3)CC2)C[C@@H](C)NC(=O)[C@H](C)[C@@H](O)[C@]1(C)O` (mixture of isomers), the MIC in assay [1] was 4 µg/mL; in assay [2] it was above 64 µg/mL; in assay [3], 2 µg/mL; in assay [4], 32 µg/mL; in assay [5], 2 µg/mL; in [6] it was 8 µg/mL. Besides, the MIC in [7] was 32 µg/mL; in assay [8] it was 4 µg/mL; in assay [9] it was 4 µg/mL; in assay [10], 16 µg/mL; in assay [11] it was 2 µg/mL; in assay [12], 1 µg/mL. Moreover, the MIC in assay [13] worked out at 0.5 µg/mL.

These data come from ChEMBL document CHEMBL1212927, “Synthesis and structure-activity relationships of novel 8a-aza-8a-homoerythromycin A ketolides” (2010).
